Measured values published in patent US10815230B2, “Casein kinase 1 delta inhibitor” (ELECTROPHORETICS LIMITED, priority 2015, dated 2020).

Experiments:
Type in all cases: biochemical
[1] = biological target: CK1a1 (Homo sapiens, UniProt P48729); test: Kinase selectivity, % remaining activity; details: CK1a1, 10 μM compound, 10 μM ATP, duplicate
Description: (§1) Compounds were tested in single dose duplicate mode at a concentration of 10 μM (in DMSO) and reactions were carried out at 10 μM ATP, Table 3 reports the % of remaining activity (relative to DMSO).

[2] = biological target: ABL2/ARG (Homo sapiens, UniProt P42684); test: Kinase selectivity, % remaining activity; details: 10 μM compound, 10 μM ATP, duplicate
Description: (§2) A two-tier strategy to determine the selectivity of compound A was applied: first, the compound was tested at a single concentration (in duplicate) to determine the %-remaining activity of the target kinase. Subsequently, the IC50 of compound A and comparative compounds for casein kinase 1 delta were determined.
as §1

[3] = biological target: T1, ALK5/TGFBR1 (Homo sapiens, UniProt P36897); test: Kinase selectivity, % remaining activity; details: 10 μM compound, 10 μM ATP, duplicate
T1 sequence (P36897 34-503): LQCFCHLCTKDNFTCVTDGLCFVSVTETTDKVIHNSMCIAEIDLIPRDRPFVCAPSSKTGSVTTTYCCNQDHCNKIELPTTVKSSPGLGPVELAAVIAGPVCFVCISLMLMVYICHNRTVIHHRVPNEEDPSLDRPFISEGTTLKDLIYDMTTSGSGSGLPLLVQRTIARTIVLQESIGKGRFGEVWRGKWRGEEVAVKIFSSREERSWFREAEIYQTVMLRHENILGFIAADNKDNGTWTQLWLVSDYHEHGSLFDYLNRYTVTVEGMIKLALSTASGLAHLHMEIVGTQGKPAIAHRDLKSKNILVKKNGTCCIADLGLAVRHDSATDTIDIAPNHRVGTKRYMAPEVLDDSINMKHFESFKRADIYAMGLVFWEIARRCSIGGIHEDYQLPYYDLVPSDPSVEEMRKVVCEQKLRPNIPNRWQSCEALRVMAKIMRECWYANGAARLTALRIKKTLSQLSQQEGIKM
Description: as §2, §1

[4] = biological target: CDK5/p25 (Homo sapiens, UniProt Q00535); test: Kinase selectivity, % remaining activity; details: 10 μM compound, 10 μM ATP, duplicate
Description: as §2, §1

[5] = biological target: CK1e (Homo sapiens, UniProt P49674); test: Kinase selectivity, % remaining activity; details: 10 μM compound, 10 μM ATP, duplicate
Description: as §2, §1

[6] = biological target: CK1g1 (Homo sapiens, UniProt Q9HCP0); test: Kinase selectivity, % remaining activity; details: 10 μM compound, 10 μM ATP, duplicate
Description: as §2, §1

[7] = biological target: CK1g2 (Homo sapiens, UniProt P78368); test: Kinase selectivity, % remaining activity; details: 10 μM compound, 10 μM ATP, duplicate
Description: as §2, §1

[8] = biological target: CK1g3 (Homo sapiens, UniProt Q9Y6M4); test: Kinase selectivity, % remaining activity; details: 10 μM compound, 10 μM ATP, duplicate
Description: as §2, §1

[9] = biological target: CLK2 (Homo sapiens, UniProt P49760); test: Kinase selectivity, % remaining activity; details: 10 μM compound, 10 μM ATP, duplicate
Description: as §2, §1

[10] = biological target: EGFR (Homo sapiens, UniProt P00533); test: Kinase selectivity, % remaining activity; details: 10 μM compound, 10 μM ATP, duplicate
Description: as §2, §1

[11] = biological target: EPHA2 (Homo sapiens, UniProt P29317); test: Kinase selectivity, % remaining activity; details: 10 μM compound, 10 μM ATP, duplicate
Description: as §2, §1

[12] = biological target: FGFR1 (Homo sapiens, UniProt P11362); test: Kinase selectivity, % remaining activity; details: 10 μM compound, 10 μM ATP, duplicate
Description: as §2, §1

[13] = biological target: GSK3B (Homo sapiens, UniProt P49841); test: Kinase selectivity, % remaining activity; details: 10 μM compound, 10 μM ATP, duplicate
Description: as §2, §1

[14] = biological target: JNK2 (Homo sapiens, UniProt P45984); test: Kinase selectivity, % remaining activity; details: 10 μM compound, 10 μM ATP, duplicate
Description: as §2, §1

[15] = biological target: KDR/VEGFR2 (Homo sapiens, UniProt P35968); test: Kinase selectivity, % remaining activity; details: 10 μM compound, 10 μM ATP, duplicate
Description: as §2, §1

[16] = biological target: LCK (Homo sapiens, UniProt P06239); test: Kinase selectivity, % remaining activity; details: 10 μM compound, 10 μM ATP, duplicate
Description: as §2, §1

[17] = biological target: MSK1/RPS6KA5 (Homo sapiens, UniProt O75582); test: Kinase selectivity, % remaining activity; details: 10 μM compound, 10 μM ATP, duplicate
Description: as §2, §1

[18] = biological target: P38a/MAPK14 (Homo sapiens, UniProt Q16539); test: Kinase selectivity, % remaining activity; details: 10 μM compound, 10 μM ATP, duplicate
Description: as §2, §1

[19] = biological target: T2, PDK1/PDPK1 (Homo sapiens, UniProt O15530); test: Kinase selectivity, % remaining activity; details: 10 μM compound, 10 μM ATP, duplicate
T2 sequence (O15530 1-556): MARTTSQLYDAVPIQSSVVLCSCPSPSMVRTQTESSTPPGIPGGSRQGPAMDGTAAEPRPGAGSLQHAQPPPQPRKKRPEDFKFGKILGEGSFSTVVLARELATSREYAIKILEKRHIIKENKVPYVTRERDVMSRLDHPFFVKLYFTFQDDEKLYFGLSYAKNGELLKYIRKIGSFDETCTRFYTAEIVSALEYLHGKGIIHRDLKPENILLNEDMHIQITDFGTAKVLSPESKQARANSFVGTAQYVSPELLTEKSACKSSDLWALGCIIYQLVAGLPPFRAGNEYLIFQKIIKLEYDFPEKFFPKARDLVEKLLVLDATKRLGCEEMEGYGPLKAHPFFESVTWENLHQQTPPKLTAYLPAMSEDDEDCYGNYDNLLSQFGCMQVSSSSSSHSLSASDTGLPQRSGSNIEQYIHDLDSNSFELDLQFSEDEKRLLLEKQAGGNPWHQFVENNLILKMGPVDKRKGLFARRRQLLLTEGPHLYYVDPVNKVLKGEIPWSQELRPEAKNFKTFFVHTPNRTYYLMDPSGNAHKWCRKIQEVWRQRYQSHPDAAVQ
Description: as §2, §1

[20] = biological target: PIM3 (Homo sapiens, UniProt Q86V86); test: Kinase selectivity, % remaining activity; details: 10 μM compound, 10 μM ATP, duplicate
Description: as §2, §1

[21] = biological target: PKA (Homo sapiens, UniProt P17612); test: Kinase selectivity, % remaining activity; details: 10 μM compound, 10 μM ATP, duplicate
Description: as §2, §1

[22] = biological target: PKCb2 (Homo sapiens, UniProt P05771); test: Kinase selectivity, % remaining activity; details: 10 μM compound, 10 μM ATP, duplicate
Description: as §2, §1

[23] = biological target: RIPK2 (Homo sapiens, UniProt O43353); test: Kinase selectivity, % remaining activity; details: 10 μM compound, 10 μM ATP, duplicate
Description: as §2, §1

[24] = biological target: ROCK1 (Homo sapiens, UniProt Q13464); test: Kinase selectivity, % remaining activity; details: 10 μM compound, 10 μM ATP, duplicate
Description: as §2, §1

[25] = biological target: TNIK (Homo sapiens, UniProt Q9UKE5); test: Kinase selectivity, % remaining activity; details: 10 μM compound, 10 μM ATP, duplicate
Description: as §2, §1

[26] = biological target: YES/YES1 (Homo sapiens, UniProt P07947); test: Kinase selectivity, % remaining activity; details: 10 μM compound, 10 μM ATP, duplicate
Description: as §2, §1

[27] = biological target: CK1d (casein kinase 1 delta) (Homo sapiens, UniProt P48730); test: Kinase selectivity, % remaining activity and IC50; details: 10 μM ATP; for IC50: casein kinase 1 delta, 10-dose, 3 fold serial dilution
Description: as §2, §1
Control compound GW5074 (Tocris®) was tested starting at 20 μM. Reactions were carried out at 10 μM ATP.

[28] = read-out: % of remaining activity (relative to DMSO)

CK1d (casein kinase 1 delta), sequence (P48730 whole entry): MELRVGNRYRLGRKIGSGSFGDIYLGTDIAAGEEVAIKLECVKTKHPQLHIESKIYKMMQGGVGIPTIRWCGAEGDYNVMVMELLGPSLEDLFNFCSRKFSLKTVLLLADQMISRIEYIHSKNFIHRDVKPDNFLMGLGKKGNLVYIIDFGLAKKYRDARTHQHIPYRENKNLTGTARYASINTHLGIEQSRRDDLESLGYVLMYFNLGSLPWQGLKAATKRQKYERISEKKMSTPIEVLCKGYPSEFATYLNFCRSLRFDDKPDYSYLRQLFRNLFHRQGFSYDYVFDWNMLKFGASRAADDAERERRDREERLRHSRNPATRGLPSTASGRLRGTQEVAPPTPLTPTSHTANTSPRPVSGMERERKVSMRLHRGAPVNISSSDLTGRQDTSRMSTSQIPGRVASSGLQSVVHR
GSK3B, sequence (P49841 whole entry): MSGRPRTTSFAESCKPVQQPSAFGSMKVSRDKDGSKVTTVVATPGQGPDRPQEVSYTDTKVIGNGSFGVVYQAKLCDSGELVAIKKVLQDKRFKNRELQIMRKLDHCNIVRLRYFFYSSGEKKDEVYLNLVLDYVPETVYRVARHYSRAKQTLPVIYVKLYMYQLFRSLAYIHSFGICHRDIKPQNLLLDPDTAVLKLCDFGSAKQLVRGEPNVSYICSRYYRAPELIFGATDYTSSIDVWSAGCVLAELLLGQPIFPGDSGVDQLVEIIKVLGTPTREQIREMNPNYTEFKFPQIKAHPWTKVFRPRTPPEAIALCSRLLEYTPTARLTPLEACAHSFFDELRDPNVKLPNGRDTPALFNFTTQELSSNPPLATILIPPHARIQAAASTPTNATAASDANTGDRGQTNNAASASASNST
EGFR, sequence (P00533 25-1210): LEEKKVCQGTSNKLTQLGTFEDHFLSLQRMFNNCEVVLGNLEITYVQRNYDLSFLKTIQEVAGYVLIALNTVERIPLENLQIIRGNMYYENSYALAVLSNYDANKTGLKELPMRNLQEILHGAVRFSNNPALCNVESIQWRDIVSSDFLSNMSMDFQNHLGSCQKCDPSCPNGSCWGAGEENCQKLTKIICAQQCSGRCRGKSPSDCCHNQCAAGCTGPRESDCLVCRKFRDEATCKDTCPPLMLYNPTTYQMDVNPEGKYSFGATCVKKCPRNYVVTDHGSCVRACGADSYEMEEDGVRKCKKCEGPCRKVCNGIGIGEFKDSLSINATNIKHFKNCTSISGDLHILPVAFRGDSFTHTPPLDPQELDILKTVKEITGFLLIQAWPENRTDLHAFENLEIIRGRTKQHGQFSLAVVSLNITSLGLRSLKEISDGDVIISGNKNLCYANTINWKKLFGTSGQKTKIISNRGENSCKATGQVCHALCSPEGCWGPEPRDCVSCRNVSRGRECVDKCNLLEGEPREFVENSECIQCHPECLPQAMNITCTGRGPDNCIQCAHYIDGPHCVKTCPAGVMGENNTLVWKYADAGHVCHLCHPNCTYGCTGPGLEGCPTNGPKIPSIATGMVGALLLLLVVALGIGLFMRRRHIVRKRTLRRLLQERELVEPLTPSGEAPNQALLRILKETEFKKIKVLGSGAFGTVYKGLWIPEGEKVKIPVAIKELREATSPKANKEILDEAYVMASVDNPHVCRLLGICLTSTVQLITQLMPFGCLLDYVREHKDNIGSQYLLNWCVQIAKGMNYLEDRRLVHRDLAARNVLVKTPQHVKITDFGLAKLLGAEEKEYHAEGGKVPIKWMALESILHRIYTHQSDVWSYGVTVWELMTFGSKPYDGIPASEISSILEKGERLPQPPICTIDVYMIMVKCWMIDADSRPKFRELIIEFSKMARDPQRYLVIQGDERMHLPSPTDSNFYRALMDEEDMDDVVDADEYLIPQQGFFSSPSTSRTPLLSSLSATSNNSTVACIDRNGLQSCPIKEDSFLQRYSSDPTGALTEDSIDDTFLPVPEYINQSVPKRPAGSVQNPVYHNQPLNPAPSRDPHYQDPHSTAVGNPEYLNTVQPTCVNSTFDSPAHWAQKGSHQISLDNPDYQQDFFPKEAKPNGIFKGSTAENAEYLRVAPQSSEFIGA
CLK2, sequence (P49760 whole entry): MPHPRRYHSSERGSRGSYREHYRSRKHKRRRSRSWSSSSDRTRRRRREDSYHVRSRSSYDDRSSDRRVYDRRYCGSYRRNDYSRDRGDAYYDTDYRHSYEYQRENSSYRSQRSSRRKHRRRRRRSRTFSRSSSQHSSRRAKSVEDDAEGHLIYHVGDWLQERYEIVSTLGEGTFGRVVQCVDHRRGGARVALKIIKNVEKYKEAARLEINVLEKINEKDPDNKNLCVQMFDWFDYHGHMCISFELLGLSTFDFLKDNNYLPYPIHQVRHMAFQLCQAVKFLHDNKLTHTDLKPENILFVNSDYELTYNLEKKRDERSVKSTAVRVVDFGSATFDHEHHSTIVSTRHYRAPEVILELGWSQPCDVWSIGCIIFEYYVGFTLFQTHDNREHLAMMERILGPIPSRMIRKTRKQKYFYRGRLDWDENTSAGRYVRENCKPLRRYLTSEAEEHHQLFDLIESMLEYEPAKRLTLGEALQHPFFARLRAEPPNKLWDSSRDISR
LCK, sequence (P06239 whole entry): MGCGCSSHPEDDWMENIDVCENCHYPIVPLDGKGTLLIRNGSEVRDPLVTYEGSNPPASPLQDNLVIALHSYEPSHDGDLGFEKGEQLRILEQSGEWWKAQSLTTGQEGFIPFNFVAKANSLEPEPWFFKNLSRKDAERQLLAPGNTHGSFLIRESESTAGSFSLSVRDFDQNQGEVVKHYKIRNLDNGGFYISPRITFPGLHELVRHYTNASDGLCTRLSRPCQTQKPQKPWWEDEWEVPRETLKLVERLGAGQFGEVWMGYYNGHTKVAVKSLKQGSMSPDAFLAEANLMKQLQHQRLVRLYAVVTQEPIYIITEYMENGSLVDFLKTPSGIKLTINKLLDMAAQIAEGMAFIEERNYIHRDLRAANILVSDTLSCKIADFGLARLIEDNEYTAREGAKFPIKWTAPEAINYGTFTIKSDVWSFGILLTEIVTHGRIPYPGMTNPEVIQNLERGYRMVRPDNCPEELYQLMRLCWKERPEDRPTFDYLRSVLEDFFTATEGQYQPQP
CDK5/p25, sequence (Q00535 whole entry, species assumed): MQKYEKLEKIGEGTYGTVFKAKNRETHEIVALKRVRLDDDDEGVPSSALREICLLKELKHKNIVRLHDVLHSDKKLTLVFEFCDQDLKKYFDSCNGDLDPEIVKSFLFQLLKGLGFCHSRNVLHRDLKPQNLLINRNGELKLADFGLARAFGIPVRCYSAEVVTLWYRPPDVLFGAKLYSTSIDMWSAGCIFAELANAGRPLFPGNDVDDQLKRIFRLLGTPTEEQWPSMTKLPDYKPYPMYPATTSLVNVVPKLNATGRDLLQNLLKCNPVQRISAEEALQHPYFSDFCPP
TNIK, sequence (Q9UKE5 whole entry): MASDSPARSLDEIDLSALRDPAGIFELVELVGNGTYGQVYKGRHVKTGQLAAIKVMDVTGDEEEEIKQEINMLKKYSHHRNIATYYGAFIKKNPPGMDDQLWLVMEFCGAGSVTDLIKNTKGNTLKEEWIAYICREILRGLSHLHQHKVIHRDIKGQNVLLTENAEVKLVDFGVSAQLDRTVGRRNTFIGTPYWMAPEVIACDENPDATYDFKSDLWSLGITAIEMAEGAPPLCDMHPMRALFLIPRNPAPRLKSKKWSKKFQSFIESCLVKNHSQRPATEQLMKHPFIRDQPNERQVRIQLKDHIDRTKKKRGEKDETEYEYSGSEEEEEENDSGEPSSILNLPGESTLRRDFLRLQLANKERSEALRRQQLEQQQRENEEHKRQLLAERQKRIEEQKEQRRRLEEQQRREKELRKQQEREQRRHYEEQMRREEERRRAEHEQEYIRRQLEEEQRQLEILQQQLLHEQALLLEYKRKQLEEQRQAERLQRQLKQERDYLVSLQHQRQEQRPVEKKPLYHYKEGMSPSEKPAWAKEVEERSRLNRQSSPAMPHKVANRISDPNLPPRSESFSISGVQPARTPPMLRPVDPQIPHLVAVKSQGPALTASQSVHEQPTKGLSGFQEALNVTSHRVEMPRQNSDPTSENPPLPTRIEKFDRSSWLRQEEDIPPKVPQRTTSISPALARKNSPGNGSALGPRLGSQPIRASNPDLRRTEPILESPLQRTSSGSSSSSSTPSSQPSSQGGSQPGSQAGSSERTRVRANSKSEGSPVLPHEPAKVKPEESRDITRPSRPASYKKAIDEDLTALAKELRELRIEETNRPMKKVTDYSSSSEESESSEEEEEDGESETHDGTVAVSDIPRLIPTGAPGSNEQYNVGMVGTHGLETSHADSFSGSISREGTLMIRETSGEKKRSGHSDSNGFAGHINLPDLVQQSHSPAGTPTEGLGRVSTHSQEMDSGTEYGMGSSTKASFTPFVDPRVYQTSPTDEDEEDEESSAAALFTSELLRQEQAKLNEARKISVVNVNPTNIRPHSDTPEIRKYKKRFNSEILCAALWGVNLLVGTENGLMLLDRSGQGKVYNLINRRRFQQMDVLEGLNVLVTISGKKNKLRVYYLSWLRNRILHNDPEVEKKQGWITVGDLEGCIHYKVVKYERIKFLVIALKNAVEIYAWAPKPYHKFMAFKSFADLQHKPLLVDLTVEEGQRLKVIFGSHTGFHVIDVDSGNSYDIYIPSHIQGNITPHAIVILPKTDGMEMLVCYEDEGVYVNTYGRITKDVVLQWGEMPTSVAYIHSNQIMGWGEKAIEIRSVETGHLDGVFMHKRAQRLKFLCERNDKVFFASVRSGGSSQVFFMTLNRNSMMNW

NC(=O)c1c(N)c(C(=O)c2ccc(F)cc2)n2ccccc12 [Comparative Compound 987, 2-amino-3-[(4-fluorophenyl)carbonyl]indolizine-1-carboxamide]
% of remaining activity (relative to DMSO) ([1]; listed as Cmp 987): 17.57%
remaining activity at 10 µM [1, 28]: 20.3%
% of remaining activity (relative to DMSO) ([2]; listed as Cmp 987): 83.33%
remaining activity at 10 µM [2, 28]: 88.1%
% of remaining activity (relative to DMSO) ([3]; listed as Cmp 987): 37.80%
remaining activity at 10 µM [3, 28]: 39.8%
% of remaining activity (relative to DMSO) ([4]; listed as Cmp 987): 91.79%
remaining activity at 10 µM [4, 28]: 98.2%
% of remaining activity (relative to DMSO) ([5]; listed as Cmp 987): 18.19%
remaining activity at 10 µM [5, 28]: 20.1%
% of remaining activity (relative to DMSO) ([6]; listed as Cmp 987): 99.58%
remaining activity at 10 µM [6, 28]: 104%
% of remaining activity (relative to DMSO) ([7]; listed as Cmp 987): 78.23%
remaining activity at 10 µM [7, 28]: 77.7%
% of remaining activity (relative to DMSO) ([8]; listed as Cmp 987): 97.42%
remaining activity at 10 µM [8, 28]: 101%
% of remaining activity (relative to DMSO) ([9]; listed as Cmp 987): 72.17%
remaining activity at 10 µM [9, 28]: 72.7%
% of remaining activity (relative to DMSO) ([10]; listed as Cmp 987): 34.51%
remaining activity at 10 µM [10, 28]: 32%
% of remaining activity (relative to DMSO) ([11]; listed as Cmp 987): 50.05%
remaining activity at 10 µM [11, 28]: 49.4%
% of remaining activity (relative to DMSO) ([12]; listed as Cmp 987): 86.54%
remaining activity at 10 µM [12, 28]: 78.7%
% of remaining activity (relative to DMSO) ([13]; listed as Cmp 987): 68.98%
remaining activity at 10 µM [13, 28]: 70%
% of remaining activity (relative to DMSO) ([14]; listed as Cmp 987): 63.80%
remaining activity at 10 µM [14, 28]: 60%
% of remaining activity (relative to DMSO) ([15]; listed as Cmp 987): 83.06%
remaining activity at 10 µM [15, 28]: 90.3%
% of remaining activity (relative to DMSO) ([16]; listed as Cmp 987): 58.89%
remaining activity at 10 µM [16, 28]: 63.9%
% of remaining activity (relative to DMSO) ([17]; listed as Cmp 987): 87.76%
remaining activity at 10 µM [17, 28]: 91.4%
% of remaining activity (relative to DMSO) ([18]; listed as Cmp 987): 17.83^$ %
remaining activity at 10 µM [18, 28]: 17.6%
% of remaining activity (relative to DMSO) ([19]; listed as Cmp 987): 98.31%
remaining activity at 10 µM [19, 28]: 95%
% of remaining activity (relative to DMSO) ([20]; listed as Cmp 987): 75.10%
remaining activity at 10 µM [20, 28]: 88.8%
% of remaining activity (relative to DMSO) ([21]; listed as Cmp 987): 33.43%
remaining activity at 10 µM [21, 28]: 36.9%
% of remaining activity (relative to DMSO) ([22]; listed as Cmp 987): 66.13%
remaining activity at 10 µM [22, 28]: 73%
% of remaining activity (relative to DMSO) ([23]; listed as Cmp 987): 40.46%
remaining activity at 10 µM [23, 28]: 36.3%
% of remaining activity (relative to DMSO) ([24]; listed as Cmp 987): 92.49%
remaining activity at 10 µM [24, 28]: 96.9%
% of remaining activity (relative to DMSO) ([25]; listed as Cmp 987): 69.49%
remaining activity at 10 µM [25, 28]: 68.5%
% of remaining activity (relative to DMSO) ([26]; listed as Cmp 987): 40.00%
remaining activity at 10 µM [26, 28]: 42.8%
% of remaining activity (relative to DMSO) ([27]; CK1d, 10 μM compound, duplicate, listed as Cmp 987): 5.40%
remaining activity at 10 µM ([27]; CK1d, 10 μM compound, duplicate, read-out: % of remaining activity (relative to DMSO)): 5.71%
IC50 [27]: 310 nM

O=C1Nc2ccc(I)cc2/C1=C/c1cc(Br)c(O)c(Br)c1 [GW5074]
IC50 [27]: 113 nM
